# Source: patent publication US5444073A, “Method for treating memory impairment” (H. Lundbeck A/S, priority 1991, dated 1995)
# Test: Catalepsy test (rat on a vertical wire mesh, s.c.)
# Details: Cataleptic Activity, maximum within the first 6 hours
# Protocol: Test compound is given s.c. in different doses. The rat (170-240 g) is placed on a vertical wire mesh (mesh-diameter 12 mm). The rat is considered cataleptic if it remains immobile for more than 15 sec. The maximum number of rats showing catalepsy within the first 6 hours is recorded for each dose group. The results are recorded in fractions and an ED50 value is calculated by means of log-probit analysis.
row,Compound,ED50(s.c.) [µmol/kg]
1,"CN1CCN(CCN2CCC(c3cn(-c4ccc(F)cc4)c4ccc(Cl)cc34)CC2)C1=O.O=C(O)/C=C/C(=O)O [Comp. No 3, 5-chloro-1-(4-fluorophenyl)-3-[1-[2-(3-methyl-2-imidazolidinon-1-yl)ethyl]4-piperidyl]-1H-indole, fumarate]",31
2,"5-Chloro-1-(4-fluorophenyl)-3-[4-[2-(2-imidazolidinon-1-yl)ethyl]-12,3,6-tetrahydropyridin-4-yl]-5-trifluoromethyl-1H-indole [Comp. C]",4.5
3,"5-Chloro-1-(4-fluorophenyl)-3-[1-[2-(2-imidazolidinon-1-yl)ethyl]-1,2,3,6-tetrahydropyridin-4-yl]-5-trifluoromethyl-1H-indole [Comp. B]",2.2
4,"O=C1NCCN1CCN1CC=C(c2cn(-c3ccc(F)cc3)c3ccc(C(F)(F)F)cc23)CC1 [Comp. A, 1-(4-Fluorophenyl)-3-[1-[2-(2-imidazolidinon-1-yl)ethyl]-1,2,3,6-tetrahydropyridin-4-yl]-5-trifluoromethyl-1H-indole]",0.49
5,"O=C(O)/C=C/C(=O)O.O=C1CCCN1CCN1CCC(c2cn(-c3ccc(F)cc3)c3ccc(Cl)cc23)CC1 [Comp. No 4, 5-chloro-1-(4-fluorophenyl)-3-[1-[2-(2-pyrrolidinon-1-yl)ethyl]-4-piperidyl]-1H-indole, fumarate]",23
